Measured values reported in paper PMC9825896, “Discovery of an L‐like Configuration for 3’‐Fluoro‐5’‐norcarbonucleoside Phosphonates as Potent Anti‐HIV Agents” (Chemmedchem, 2022).
Where two headings read alike, the source gives them in different places.

Assays:
[1] = tested on: HIV‐1‐56252‐1; test: Anti-HIV-1 activity in T CD4+ H9 cells, resistant strain 56252-1; format: cell-based; details: Human immunodeficiency virus 1; strain 56252‐1, T CD4+ H9 cells, mean from three experiments
Description: (§1) Peripheral blood mononuclear cells (PBMC) from healthy donors were isolated and stimulated for 3 days with […] of phytohemagglutinin‐P (PHA‐P, Sigma) and 5 IU/mL of recombinant human interleukin‐2 (rHuIL‐2, Roche). PBMC were growth under CO2 in a humid atmosphere at 37 °C in RPMI‐1640 GlutaMAX medium supplemented with antibiotics (penicillin, streptomycin, neomycin), 10 % fetal calf serum (FCS, previously inactivated by heat) and 10 UI/mL of rHuIL‐2. The HIV‐1 LAI strain was previously described.[19] Resistant viral strains are from the NIH AIDS Research & Reference Reagent Program (HIV‐1–52534‐2, HIV‐1–56252‐1, HIV‐1–71361‐1, and HIV‐1–7324‐1) carry mutations in RT.[16]
(§2) PHA‐P activated PBMCs (1.5×10^5 cells) were pre‐treated for 30 min by increasing concentrations of the various compounds to be tested and then infected with […] infectious tissue culture doses 50 % (TCID50) of the HIV‐1‐LAI. Supernatants were collected at day 7 post infection and stored at ‐ 20 °C. Viral replication was measured by quantifying reverse transcriptase activity in cell culture supernatants by the use of Lenti kit RT (Cavidi). Cytotoxicity of the compounds was evaluated in uninfected PHA‐P PBMC by MTT assay (Promega) on day 7. Experiments were performed in triplicate and repeated with another blood donors. Data analyses were performed using SoftMax® Pro 4.6 software (Molecular Devices). Percent of inhibition of RT activity or cell viability were plotted versus compound concentration and fitted with quadratic curves to determine 50 % effective concentration (EC50) and 50 % cytotoxic concentration (CC50). The viral resistant strains were amplified and the viral stocks titrated using cells of the H9 line.[20] More specifically, with regard to the antiviral test, the cells were distributed in the wells of 96‐well microplates at the rate of 50,000 cells per well. They were then pretreated for 30 minutes with increasing concentrations of the various compounds to be tested and then infected with 125 TCID50 of the various resistant strains. Seven and 14 days after infection, culture supernatants were collected and frozen at −20 ° C until measurement of viral replication via quantification of the enzymatic activity of the TI. The EC50 was calculated as previously described. A possible cytotoxicity of the molecules towards the cells of the H9 line was assessed by microscopic observation throughout the cell cultures.

[2] = tested on: HIV‐1‐71361‐1; test: Anti-HIV-1 activity in T CD4+ H9 cells, resistant strain 71361-1; format: cell-based; details: Human immunodeficiency virus 1, H9
Description: as §1, §2

[3] = tested on: HIV‐1 LAI; test: Anti-HIV-1 activity in T CD4+ H9 cells, LAI reference strain; format: cell-based; details: Human immunodeficiency virus 1, mean from three experiments
Description: as §1, §2

[4] = Cytotoxicity in uninfected PHA-P PBMC by MTT assay; format: cell-based, human; details: human
Description: as §1, §2

[5] = tested on: HIV‐1‐52534‐2; test: Anti-HIV-1 activity in T CD4+ H9 cells, resistant strain 52534-2; format: cell-based; details: strain 52534‐2, T CD4+ H9 cells; for EC50: Human immunodeficiency virus 1, mean from three experiments
Description: as §1, §2

[6] = tested on: HIV‐1 LAI strain; test: Anti-HIV-1 LAI activity in PHA-P activated PBMC (RT activity in supernatants); format: cell-based; details: for EC50: read-out: EC50, effective concentration of drug required to reduce viral replication by 50 %
Description: as §1, §2

[7] = tested on: HIV‐1‐7324‐1; test: Anti-HIV-1 activity in T CD4+ H9 cells, resistant strain 7324-1; format: cell-based; details: Human immunodeficiency virus 1; strain 7324‐1, T CD4+ H9 cells, mean from three experiments
Description: as §1, §2

[8] = tested on: human peripheral blood mononuclear cells (PBMC); test: Cytotoxicity in uninfected PHA-P PBMC by MTT assay; format: cell-based
Description: as §1, §2

[9] = tested on: human peripheral blood mononuclear cells (PBMC); set-up: method as in earlier work; details: ref 4b, cited from earlier work; for CC50: read-out: CC50, cytotoxic concentration of drug required to reduce cell growth by 50 %
[10] = tested on: HIV‐1 LAI strain; details: ref 4b, cited from earlier work; for SI = CC50/EC50: HIV-1 LAI in PBMC; for EC50: read-out: EC50, effective concentration of drug required to reduce viral replication by 50 %, HIV-1 LAI in human PBMC
[11] = Human immunodeficiency virus 1, PBMC, 168 h
[12] = uninfected PBMC, MTT, day 7, mean from 3 blood donors, read-out: CC50, cytotoxic concentration of drug required to reduce cell growth by 50 %
[13] = Human immunodeficiency virus 1, 168 h, HIV-1 LAI in human PBMC, day 7 post infection, mean from 3 blood donors

SMILES: CC(C)(C)C(=O)OCOP(=O)(CO[C@H]1C[C@@H](n2cnc3c(N)ncnc32)C=C1F)OCOC(=O)C(C)(C)C [(+)‐9, bis‐(Pivaloyloxymethyl)‐((1’S,4’R)‐4‐(6‐amino‐9H‐purin‐9‐yl)‐2‐fluorocyclopent‐2‐en‐1‐yl)oxymethyl‐phosphonate]
- EC50 [1]: 960 nM
- EC50 [2]: 680 nM
- EC50 [3]: 1850 nM
- CC50 at 7 days [4]: ≥ 10000 nM
- EC50 [5]: ≥ 10000 nM
- EC50 [6, 11]: 510 nM
- EC50 [7]: 240 nM

SMILES: CC(C)(C)C(=O)OCOP(=O)(CO[C@@H]1C[C@H](n2cnc3c(N)ncnc32)C=C1F)OCOC(=O)C(C)(C)C [(−)‐9, bis‐(Pivaloyloxymethyl)‐((1’R,4’S)‐4‐(6‐amino‐9H‐purin‐9‐yl)‐2‐fluorocyclopent‐2‐en‐1‐yl)oxymethyl‐phosphonate]
- EC50 [1]: 90 nM
- EC50 [2]: 110 nM
- EC50 [3]: 110 nM
- CC50 at 7 days [4]: 5200 nM
- cytotoxicity (in words) [8]: some cytotoxicity
- EC50 [5]: 580 nM
- antiviral activity (in words) [5]: remains significantly active
- anti‐HIV‐1 activity, fold greater than that of the D‐like enantiomer ([6]; HIV-1 LAI in PBMC, EC50 ratio versus D-like bis(POM) prodrug): 8 fold
- anti‐HIV‐1 activity, fold greater than Tenofovir ([6]; HIV-1 LAI in PBMC, EC50 ratio versus Tenofovir): 17 fold
- EC50 [6, 11]: 63 nM
- EC50 [7]: 10 nM

SMILES: C[C@H](Cn1cnc2c(N)ncnc21)OCP(=O)(O)O [(R)‐PMPA, reference compound]
- EC50 [1]: 1650 nM
- EC50 [2]: 100 nM
- EC50 [3]: 130 nM
- CC50 [9]: ≥ 10000 nM
- SI = CC50/EC50 [10]: ≥9.1
- SI = CC50/EC50 ([10]; listed as Tenofovir): 9.1
- EC50 [10]: 1100 nM
- EC50 [5]: 6100 nM
- EC50 [7]: 100 nM

SMILES: Nc1ncnc2c1ncn2[C@H]1C=C(F)[C@@H](OCP(=O)(O)O)C1 (racemic) [(±)‐1]
- EC50 [1]: 10000 nM
- EC50 [2]: 3730 nM
- EC50 [3]: 660 nM
- CC50 [9]: ≥ 10000 nM
- cytotoxicity (in words) [9]: without additional cytotoxicity
- EC50 [10]: 880 nM
- EC50 [5]: ≥ 10000 nM
- EC50 [7]: 170 nM

SMILES: Nc1ncnc2c1ncn2[C@H]1C=C(F)[C@@H](OCP(=O)(O)O)C1 [(+)‐1]
- CC50 at 7 days [4, 12]: ≥ 10000 nM
- cytotoxicity (in words) ([8]; PBMC): No cytotoxicity
- SI = CC50/EC50 ([6]; HIV-1 LAI in PBMC): ≥2.32
- EC50 [6, 13]: 4300 nM

SMILES: Nc1ncnc2c1ncn2[C@@H]1C=C(F)[C@H](OCP(=O)(O)O)C1 [(−)‐1]
- EC50 [1]: 690 nM
- EC50 [2]: 900 nM
- EC50 [3]: 330 nM
- CC50 at 7 days [4, 12]: ≥ 10000 nM
- cytotoxicity (in words) ([8]; PBMC): No cytotoxicity
- EC50 [5]: ≥ 10000 nM
- SI = CC50/EC50 ([6]; HIV-1 LAI in PBMC): ≥52.6
- EC50 [6, 13]: 190 nM
- EC50 [7]: 420 nM
